Laboratory results reported in US11684607B2, “Secnidazole for use in the treatment of bacterial vaginosis” (priority 2014, dated 2023).

Test: Single oral dose pharmacokinetics (plasma and urine) of SYM-1219 microgranule formulation in fasted healthy female subjects
Conditions: for AUC(0-t): AUC0-t; for CL renal: CLr
[1] = female, human, plasma, po, 1 g, Geometric Mean, 1 gram single oral dose, fasted, N = 14
[2] = female, human, plasma, po, 1 g, Mean, 1 gram single oral dose, fasted, N = 14
[3] = female, human, plasma, po, 1 g, Median, 1 gram single oral dose, fasted, N = 14
[4] = plasma, 1 gram single oral dose, fasted, N = 14
[5] = plasma, 2 grams single oral dose, fasted, N = 14
[6] = urine, 1 gram single oral dose, fasted, N = 14
[7] = urine, 2 grams single oral dose, fasted, N = 14

Description: A non-compartmental analysis was performed and the PK parameters for each treatment group are reported.

SMILES: Cc1ncc([N+](=O)[O-])n1CC(C)O (centres unmarked) [SYM-1219, 1-(2-hydroxypropyl)-2-methyl-5-nitromidazole]
- intersubject variability for Cmax and AUC (1 g and 2 g doses): < 20 % CV
- renal clearance as percentage of the glomerular filtration rate typically found in healthy subjects (1 g and 2 g doses): < 5%
- Urinary excretion of unchanged SYM-1219, share of the administered dose (1 g dose): 13.6%
- Urinary excretion of unchanged SYM-1219, share of the administered dose (2 g dose): 15.3%
- time by which maximum concentrations were achieved (both dose groups (1 g and 2 g)): approximately 4 hrs.
- dose proportionality of pharmacokinetics (comparing the 1 and 2 g doses): dose proportional
- AUC(0-inf) (female, human, plasma, oral, 1 g, Exposure estimate (AUCinf)): 619 µg·h/mL
- AUC(0-inf) (female, human, plasma, oral, 2 g, Exposure estimate (AUCinf)): 1330 µg·h/mL
- Tmax (female, human, plasma, po, 1 g): 3.06 h
- AUC(0-t) [1]: 603 µg·h/mL
- AUC(0-t) [2]: 610 µg·h/mL
- AUC(0-t) [3]: 587 µg·h/mL
- Cmax [1]: 22400 ng/mL
- Cmax [2]: 22600 ng/mL
- Cmax [3]: 22800 ng/mL
- AUC(0-inf) (female, human, plasma, po, 1 gram, AUC0-∞, Geometric Mean, 1 gram single oral dose, fasted, N = 14): 612 µg·h/mL
- AUC(0-inf) (female, human, plasma, po, 1 gram, AUC0-∞, Mean, 1 gram single oral dose, fasted, N = 14): 619 µg·h/mL
- AUC(0-inf) (female, human, plasma, po, 1 gram, AUC0-∞, Median, 1 gram single oral dose, fasted, N = 14): 595 µg·h/mL
- CL renal (female, human, urine, po, 1 gram, Geometric Mean, 1 gram single oral dose, fasted, N = 14): 3.65 mL/min
- CL renal (female, human, urine, po, 1 gram, Mean, 1 gram single oral dose, fasted, N = 14): 3.74 mL/min
- Mean maximum concentration (plasma, 1 g dose): 22.6 µg/mL
- t1/2, Mean [4]: 17.05 h
- t1/2, Median [4]: 16.79 h
- λz, Mean [4]: 0.04099 h⁻¹
- λz, Median [4]: 0.04129 h⁻¹
- Mean maximum concentration (plasma, 2 g dose): 45.4 µg/mL
- AUC0-t, Geometric Mean [5]: 1305.35 µg·h/mL
- AUC0-t, Mean [5]: 1322.40 µg·h/mL
- AUC0-t, Median [5]: 1290.41 µg·h/mL
- AUC0-∞, Geometric Mean [5]: 1314.74 µg·h/mL
- AUC0-∞, Mean [5]: 1331.63 µg·h/mL
- AUC0-∞, Median [5]: 1299.10 µg·h/mL
- Cmax, Geometric Mean [5]: 44840 ng/mL
- Cmax, Mean [5]: 45430 ng/mL
- Cmax, Median [5]: 45050 ng/mL
- Tmax, Median [5]: 4.000 h
- t1/2, Mean [5]: 16.86 h
- t1/2, Median [5]: 17.13 h
- λz, Mean [5]: 0.0422 h⁻¹
- λz, Median [5]: 0.04047 h⁻¹
- % FE, Geometric Mean [6]: 13.403%
- % FE, Mean [6]: 13.602%
- % FE, Median [6]: 13.981%
- Ae0-168, Geometric Mean [6]: 0.134 g
- Ae0-168, Mean [6]: 0.136 g
- Ae0-168, Median [6]: 0.140 g
- CLr, Median [6]: 3.965 mL/min
- % FE, Geometric Mean [7]: 14.991%
- % FE, Mean [7]: 15.300%
- % FE, Median [7]: 14.943%
- Ae0-168, Geometric Mean [7]: 0.300 g
- Ae0-168, Mean [7]: 0.306 g
- Ae0-168, Median [7]: 0.299 g
- CLr, Geometric Mean [7]: 3.801 mL/min
- CLr, Mean [7]: 3.935 mL/min
- CLr, Median [7]: 3.962 mL/min
